From PubChem BioAssay AID330 (DTP/NCI, 2004)
Values joined by “and” are separate entries in the source; they are usually repeats but may differ in a detail not shown here. Equal entries are not always repeated. Inconclusive results and toxic doses are left out. Rule for the calls: active = survival T/C of 150% or more; inactive = T/C below 125% in these data.

Test system: P388 leukemia ip, CD2F1 mice, survival T/C
Assay: NCI In Vivo Anticancer Drug Screen. Data for tumor model P388 Leukemia (intraperitoneal) in CD2F1 (CDF1) mice
Conditions: endpoint: median survival time, higher = longer survival
Outline: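 Mice carrying the transplanted tumor received test compound or vehicle. Survival was recorded in each group, and the value is the treated-group measurement divided by that of the vehicle-treated control group.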

[1] = dose: 100.0 mg/kg/injection, schedule: Q01DX001 (ip), vehicle: saline
[2] = dose: 60.0 mg/kg/injection, schedule: Q01DX005 (ip), vehicle: saline with Tween-80
[3] = dose: 120.0 mg/kg/injection, schedule: Q01DX005 (ip), vehicle: saline with Tween-80
[4] = dose: 240.0 mg/kg/injection, schedule: Q01DX005 (ip), vehicle: saline with Tween-80

Measured: T/C

CC(C)C/C=C\CCCCCCCCCC(=O)NCC(=O)O
inactive: dose: 12.5 mg/kg/injection, schedule: Q01DX009 (ip), vehicle: distilled water + Tween-80 93 % of control | dose: 25.0 mg/kg/injection, schedule: Q01DX009 (ip), vehicle: distilled water + Tween-80 92 % of control | dose: 50.0 mg/kg/injection, schedule: Q01DX009 (ip), vehicle: distilled water + Tween-80 95 % of control | dose: 100.0 mg/kg/injection, schedule: Q01DX009 (ip), vehicle: distilled water + Tween-80 93 % of control | dose: 200.0 mg/kg/injection, schedule: Q01DX009 (ip), vehicle: distilled water + Tween-80 100 % of control

Cc1ccc2c(ccc3c[n+]4ccccc4c(C)c32)c1
inactive: dose: 2.2 mg/kg/injection, schedule: Q01DX009 (ip), vehicle: saline with Tween-80 122 % of control | dose: 3.3 mg/kg/injection, schedule: Q01DX009 (ip), vehicle: saline with Tween-80 114 % of control | dose: 5.0 mg/kg/injection, schedule: Q01DX009 (ip), vehicle: saline with Tween-80 122 % of control | dose: 6.25 mg/kg/injection, schedule: Q04DX003 (ip), vehicle: other 112 % of control | dose: 7.5 mg/kg/injection, schedule: Q01DX009 (ip), vehicle: saline with Tween-80 120 % of control | dose: 12.5 mg/kg/injection, schedule: Q04DX003 (ip), vehicle: other 112 % of control | dose: 25.0 mg/kg/injection, schedule: Q04DX003 (ip), vehicle: other 108 % of control

CC(=O)NCC(C)C
inactive: [1] 100 % of control | dose: 200.0 mg/kg/injection, schedule: Q01DX001 (ip), vehicle: saline 100 % of control | dose: 400.0 mg/kg/injection, schedule: Q01DX001 (ip), vehicle: saline 100 % of control

CN(C)C12CCC(c3ccccc31)c1ccccc12
inactive: [2] 105 % of control | [3] 97 % of control | [4] 104 % of control

COc1ccc(N2C(=O)CC(n3ccccc3=O)C2=O)cc1 (stereo unspecified)
inactive: dose: 100.0 mg/kg/injection, schedule: Q04DX002 (ip), vehicle: saline with Tween-80 100 % of control | dose: 200.0 mg/kg/injection, schedule: Q04DX002 (ip), vehicle: saline with Tween-80 99 % of control | dose: 400.0 mg/kg/injection, schedule: Q04DX002 (ip), vehicle: saline with Tween-80 101 % of control

COC(=O)C(OC)(OC)C(O)c1ccccc1 (stereo unspecified)
inactive: dose: 60.0 mg/kg/injection, schedule: Q01DX005 (ip), vehicle: saline 100 % of control | dose: 120.0 mg/kg/injection, schedule: Q01DX005 (ip), vehicle: saline 106 % of control | dose: 240.0 mg/kg/injection, schedule: Q01DX005 (ip), vehicle: saline 113 % of control

N#Cc1c2c(c(=S)n(-c3ccc(Cl)cc3)c1N)CCCC2
inactive: dose: 60.0 mg/kg/injection, schedule: Q01DX005 (ip), vehicle: Klucel + Tween-80 92 % of control | dose: 120.0 mg/kg/injection, schedule: Q01DX005 (ip), vehicle: Klucel + Tween-80 91 % of control | dose: 240.0 mg/kg/injection, schedule: Q01DX005 (ip), vehicle: Klucel + Tween-80 91 % of control

CCOC(=O)/C(C#N)=C/N1CCCC1
inactive: dose: 6.25 mg/kg/injection, schedule: Q01DX005 (ip), vehicle: saline with Tween-80 107 % of control | dose: 12.5 mg/kg/injection, schedule: Q01DX005 (ip), vehicle: saline with Tween-80 96 % of control | dose: 25.0 mg/kg/injection, schedule: Q01DX005 (ip), vehicle: saline with Tween-80 104 % of control

CN1c2ccc(Br)c[c]2[Sn]2([c]3cc(Br)ccc31)[c]1cc(Br)ccc1N(C)c1ccc(Br)c[c]12
inactive: [2] 95 % of control | [3] 98 % of control | [4] 92 % of control

NNC(=O)CCC(N)C(=O)O (stereo unspecified)
inactive: dose: 50.0 mg/kg/injection, schedule: Q01DX009 (ip), vehicle: saline sonified 100 % of control | dose: 50.0 mg/kg/injection, schedule: Q04DX003 (ip), vehicle: saline with Tween-80 95 % of control | dose: 100.0 mg/kg/injection, schedule: Q01DX009 (ip), vehicle: saline sonified 113 % of control | dose: 100.0 mg/kg/injection, schedule: Q04DX003 (ip), vehicle: saline with Tween-80 90 % of control | dose: 200.0 mg/kg/injection, schedule: Q04DX003 (ip), vehicle: saline with Tween-80 109 % of control

CCOC(=O)c1c(N=P(c2ccccc2)(c2ccccc2)c2ccccc2)n(C)c(=O)n(C)c1=O
inactive: dose: 60.0 mg/kg/injection, schedule: Q01DX005 (ip), vehicle: Klucel (hydroxypropylcellulose) (HPC) 105 % of control | dose: 120.0 mg/kg/injection, schedule: Q01DX005 (ip), vehicle: Klucel (hydroxypropylcellulose) (HPC) 99 % of control | dose: 240.0 mg/kg/injection, schedule: Q01DX005 (ip), vehicle: Klucel (hydroxypropylcellulose) (HPC) 98 % of control

O=C(OC(C(F)(F)F)C(F)(F)F)c1ccccc1
inactive: dose: 100.0 mg/kg/injection, schedule: Q04DX003 (ip), vehicle: Klucel (hydroxypropylcellulose) (HPC) 105 % of control | dose: 200.0 mg/kg/injection, schedule: Q04DX003 (ip), vehicle: Klucel (hydroxypropylcellulose) (HPC) 101 % of control | dose: 400.0 mg/kg/injection, schedule: Q04DX003 (ip), vehicle: Klucel (hydroxypropylcellulose) (HPC) 109 % of control

CSP(C)(=O)CCC(C)=O (stereo unspecified)
inactive: dose: 25.0 mg/kg/injection, schedule: Q01DX001 (ip), vehicle: saline 100 % of control | dose: 50.0 mg/kg/injection, schedule: Q01DX001 (ip), vehicle: saline 100 % of control | [1] 102 % of control

COc1ccc(OC)c(N2C(=O)C(=O)C(C(C)=O)C2=O)c1 (stereo unspecified)
inactive: dose: 50.0 mg/kg/injection, schedule: Q01DX009 (ip), vehicle: Klucel (hydroxypropylcellulose) (HPC) 107 % of control | dose: 100.0 mg/kg/injection, schedule: Q01DX009 (ip), vehicle: Klucel (hydroxypropylcellulose) (HPC) 101 % of control | dose: 200.0 mg/kg/injection, schedule: Q01DX009 (ip), vehicle: Klucel (hydroxypropylcellulose) (HPC) 105 % of control

CN(C)C1=NC(NCCc2ccccc2)(N(C)C)OC(N(C)C)=N1 (stereo unspecified)
inactive: dose: 25.0 mg/kg/injection, schedule: Q01DX005 (ip), vehicle: saline 100 % of control | dose: 50.0 mg/kg/injection, schedule: Q01DX005 (ip), vehicle: saline 107 % of control | dose: 100.0 mg/kg/injection, schedule: Q01DX005 (ip), vehicle: saline 100 % of control

O=C(Nc1ccc(Cl)cc1)/C(Cl)=C1/Sc2ccccc2NC1=O
inactive: dose: 100.0 mg/kg/injection, schedule: Q01DX001 (ip), vehicle: saline with Tween-80 97 % of control | dose: 200.0 mg/kg/injection, schedule: Q01DX001 (ip), vehicle: saline with Tween-80 91 % of control | dose: 400.0 mg/kg/injection, schedule: Q01DX001 (ip), vehicle: saline with Tween-80 91 % of control

C=C1C(=O)OC(CCCCCCCCCCCCC)C1C(=O)O (stereo unspecified)
inactive: dose: 0.25 mg/kg/injection, schedule: Q01DX009 (ip), vehicle: saline with Tween-80 99 % of control | dose: 0.5 mg/kg/injection, schedule: Q01DX009 (ip), vehicle: saline with Tween-80 101 % of control | dose: 1.0 mg/kg/injection, schedule: Q01DX009 (ip), vehicle: saline with Tween-80 100 % of control

N#C/C(=C\c1ccco1)C(=O)c1ccco1
inactive: dose: 12.5 mg/kg/injection, schedule: Q01DX009 (ip), vehicle: saline with Tween-80 112 % of control | dose: 25.0 mg/kg/injection, schedule: Q01DX009 (ip), vehicle: saline with Tween-80 95 % of control | dose: 50.0 mg/kg/injection, schedule: Q01DX009 (ip), vehicle: saline with Tween-80 89 % of control and 97 % of control

N#CCOc1ccccc1
inactive: dose: 3.12 mg/kg/injection, schedule: Q01DX009 (ip), vehicle: other 101 % of control | dose: 6.25 mg/kg/injection, schedule: Q01DX009 (ip), vehicle: other 102 % of control | dose: 12.5 mg/kg/injection, schedule: Q01DX009 (ip), vehicle: other 99 % of control | dose: 25.0 mg/kg/injection, schedule: Q01DX009 (ip), vehicle: other 106 % of control

Cc1onc(-c2c(Cl)cccc2Cl)c1C(=O)Oc1ccc(-c2ccc(OC(=O)c3c(-c4c(Cl)cccc4Cl)noc3C)cc2)cc1
inactive: [2] 108 % of control | [3] 102 % of control | [4] 89 % of control

C=CCC12CC(O)C(O)CC1(O)OC(c1cc(OC)c(OC)c(OC)c1)C2C (stereo unspecified)
inactive: dose: 1.25 mg/kg/injection, schedule: Q01DX005 (ip), vehicle: acid diluted with saline 115 % of control | dose: 2.5 mg/kg/injection, schedule: Q01DX005 (ip), vehicle: acid diluted with saline 102 % of control | dose: 5.0 mg/kg/injection, schedule: Q01DX005 (ip), vehicle: acid diluted with saline 100 % of control | dose: 10.0 mg/kg/injection, schedule: Q01DX005 (ip), vehicle: acid diluted with saline 93 % of control

O=C1OC(C(=O)O)c2ccc3c(c21)OCO3 (stereo unspecified)
inactive: dose: 100.0 mg/kg/injection, schedule: Q01DX009 (ip), vehicle: saline with Tween-80 100 % of control | dose: 200.0 mg/kg/injection, schedule: Q01DX009 (ip), vehicle: saline with Tween-80 98 % of control | dose: 400.0 mg/kg/injection, schedule: Q01DX009 (ip), vehicle: saline with Tween-80 91 % of control
